Results on 1 molecule are retold here after patent publication US20250154180A1, “CRK-LIKE (CRKL) ADAPTOR PROTEIN INHIBITORS AND METHODS OF MAKING AND USING THE SAME” (Rutgers, The State University of New Jersey, priority 2022, published 2025).

Common to all, as to format: cell-based
Assay [1] concerns TNBC cells (MDA-231 and MDA-468). The experiment in a line: Annexin V/PI apoptosis, TNBC (MDA-231 and MDA-468). Particulars: 1 uM, 24 hours. How it is done: Annexin V/PI Staining—Experimental cells were collected, washed with 1×PBS, resuspended in the binding buffer, and stained with an Annexin V-FITC assay Kit (Millipore Sigma). The cells were incubated with 50 μg/ml Annexin V in 1× binding buffer at room temperature for 15 minutes, then 10 μg/ml propidium iodide for another 15 minutes and analyzed by flow cytometry (EPICS XL). Annexin V-positive/PI-negative cells were considered early apoptotic, cells with both Annexin V and PI-positive to be late apoptotic, and Annexin V negative but PI-positive to be “necrotic.” The percent of apoptosis was calculated as the sum of the percentages of both early and late apoptotic cells.
To figure out the features of cytotoxic effects of Pomiferin on breast cancer cells. Pomiferin-treated breast cancer cells were stained with an Annexin V/PI kit and measured them with Flow Cytometry.

Assay [2] deals with IL-2 production from human PBMCs. The experiment in a line: IL-2 ELISA, PBMCs. How it is done:
IL-2 ELISA—IL-2 in vitro enzyme-linked immunosorbent assay (ELISA) was used to measure human IL-2 productions. This assay was conducted per the user manual from the kit. In brief, human PBMCs were cultured in R10 medium with 0.5 μg/ml PHA. Then, 100 μl of the standard and sample was added to each well and incubated at 4° C. overnight. A prepared biotin antibody (100 μl) was added to each well and incubated for 1 hour at room temperature. Then, 100 μl prepared streptavidin solution was added and incubated for 45 minutes at room temperature. TMB one-step substrate reagent (100 μl) was then added to each well and incubated for 30 minutes at room temperature. Stop solution (50 μl) was then added to each well, and the results were quantified at 450 nm by Infinite M1000 Pro Plate Reader (Tecan, Switzerland) immediately.
Previous studies have shown that phosphorylated CrkL inhibits immune cell functions. It was then evaluated whether a pCrkL inhibitor could restore immune cell functions. To test this, the production of IL-2 from human PBMCs treated with different concentrations of Pomiferin was quantitated. Phytohemagglutinin (PHA) was used to stimulate the secretion of IL-2 as a positive control group. […] Similar results were obtained from the third donor (FIG. 5B, lower panel).
In general terms: An ELISA detects its analyte on a solid surface through an enzyme-linked reagent.

For assay [3], the system named is hematopoietic cancer cell lines (K562, NK92-MI, Daudi, KHYG-1). The experiment in a line: MTT assay, hematopoietic cancer cell lines. Particulars: five M Pomiferin for three days; compared with MDA-MD-231-LUC. How it is done:
MTT assay—The MTT assay was used to detect cell proliferation. Briefly, cells were plated in a 96-well plate at a density of 50,000 cells/well in 200 μl of culture medium with candidate drugs to be tested (DMSO as a negative control). The treated cells were incubated for four hours a 37° C. with a 5% CO2 incubator to allow dark crystals to form at the bottom of the wells. […] After aspirating the culture medium from each well, 100 μl of crystal dissolving solution was added to each well and incubated for 10 minutes at RT. The signal was quantified by measuring the absorbance in each sample at 570 nm using a microplate reader.
To further test the inhibitory specificity of Pomiferin for specific breast cancer cell lines, The survival percentage was compared between different hematopoietic cancer cell lines and healthy PBMCs.
(Formazan colour is commonly taken as a measure of viable cells.)

Structures are written as SMILES.

As for `CC(C)=CCc1c2c(c3occ(-c4ccc(O)c(O)c4)c(=O)c3c1O)C=CC(C)(C)O2` [Pomiferin, 3′,4′,5-Trihydroxy-6″,6″-dimethyl-6-(3-methylbut-2-en-1-yl)-6″H-pyrano[2″,3″:7,8]isoflavone], in assay [1], the apoptosis result is on record as “significantly induced apoptosis”. Further, the IL2 secretion result in assay [2] (PBMCs from three healthy donors, treated overnight) is “did not inhibit IL2 secretion”. For the same molecule, the IL-2 production result in assay [2] (first donor, compared to DMSO) was “decreased IL-2 production”. For the same molecule, the “sensitivity to Pomiferin (survival percentage, MTT)” value in assay [3] was “more resistant to Pomiferin inhibition”.
